According to PMC9029893 (International Journal of Molecular Sciences, 2022):

Columns and labels:
HUVEC cells = assay: HUVEC integrity in RTCA-DP system (normalized cell index); format: cell-based, human
Experimental: The effects of sulfonamides 1–8 on the integrity and barrier properties of HUVEC were examined in real-time using a cell electric impedance monitoring system (Real-Time Cell Analyzer; Roche & ACEA Biosciences, Santa Clara, CA, USA), which is based on tracking electrical impedance signals. Any changes in cell status, adhesion, and morphology are expressed by parameter Cell Index (CI). The experimental protocol has been described previously. Briefly, the cells were seeded at a density of 15,000 cells per well on E-16 plates (Roche & ACEA Biosciences, Santa Clara, CA, USA), and cultured until the cells achieved plateau phase. Then, the medium was discarded from each well, and the solutions of the test compounds dissolved in cell culturing medium (100 μL) or pure medium (100 μL, control) were added. The measurements were then carried out for 48 h. The results are presented as mean ± SD of ‘normalized cell index’ (nCI), which is calculated by the division of a CI value at a certain time point by the CI value at a reference time point. The experiments were conducted in multiplicate (n = 4–6). The method was validated and the coefficient of variability (CV) was calculated as 9.17%–15.2%, depending on the measured time point (n = 6).

antithrombin III (AT) = antithrombin III (AT) (Homo sapiens, UniProt P01008); assay: Activity of antithrombin III (AT); format: biochemical
antithrombin III (AT), sequence (P01008 33-464): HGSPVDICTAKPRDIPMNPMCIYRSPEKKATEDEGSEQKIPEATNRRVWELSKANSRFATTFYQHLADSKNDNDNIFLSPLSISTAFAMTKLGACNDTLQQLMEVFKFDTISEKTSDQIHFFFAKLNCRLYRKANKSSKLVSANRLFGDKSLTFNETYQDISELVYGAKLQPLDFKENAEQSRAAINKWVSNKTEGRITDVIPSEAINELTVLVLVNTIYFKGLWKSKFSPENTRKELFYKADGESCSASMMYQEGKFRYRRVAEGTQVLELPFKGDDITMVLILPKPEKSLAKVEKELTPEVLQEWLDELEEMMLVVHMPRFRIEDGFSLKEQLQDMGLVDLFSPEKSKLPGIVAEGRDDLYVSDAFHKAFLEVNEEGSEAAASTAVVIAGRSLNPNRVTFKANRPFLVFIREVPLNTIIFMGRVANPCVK
Experimental: The activity of AT in human plasma was estimated spectrophotometrically using a diagnostic laboratory method. […] In the control samples, 10 μL of distilled water and methanol (1:1) was used. The reaction was initiated by the addition of a chromogenic substrate dissolved in water for injection; as a result, p-nitroaniline was released proportionally to the level of AT. The evaluation of AT level was performed on the basis of a calibration curve performed on calibrator diluted in the range 1:30–1:120 (λ = 405 nm) by the coagulometer program (CoagChrom-3003 Bio Ksel, Grudziadz, Poland). The coefficient of variability for the method (CV) was 2.69%, and the reference range was 80%–130%.

[1] = test system: coagulation in human citrate plasma; assay: Coagulation assay (endogenous thrombin generation); format: biochemical
Experimental: These reagents induce a feedback reaction leading to the generation of endogenous thrombin, and coagulation. The other experimental conditions were the same as for the CL-test (Section 4.12).
The obtained curves were analyzed using dedicated software that estimates the following parameters: TGt—thrombin generation time (s), Fmax—maximum clotting (%T), Tf—plasma clotting time (s), Fvo—initial plasma clotting velocity (%T/min), Sf—area under the clot formation curve (%Txmin), Tc—clot stabilization time (s), S—area under the curve of coagulation (%Txmin).

CN(C)C(=N)N=C(N)NS(=O)(=O)C1CCCCC1 [Compound 3]
normalized Cell Index (nCI) (HUVEC cells; 0.3 mM, 3 hours): 0.680 ± 0.083
normalized Cell Index (nCI) (HUVEC cells; 0.3 mM, 6 hours): 0.837 ± 0.213
normalized Cell Index (nCI) (HUVEC cells; 0.3 mM, 12 hours): 0.927 ± 0.212
normalized Cell Index (nCI) (HUVEC cells; 0.3 mM, 24 hours): 0.969 ± 0.156
normalized Cell Index (nCI) (HUVEC cells; 0.3 mM, 36 hours): 0.714 ± 0.035
normalized Cell Index (nCI) (HUVEC cells; 1.0 mM, 3 hours): 0.233 ± 0.039
normalized Cell Index (nCI) (HUVEC cells; 1.0 mM, 6 hours): 0.554 ± 0.047
normalized Cell Index (nCI) (HUVEC cells; 1.0 mM, 12 hours): 0.616 ± 0.042
normalized Cell Index (nCI) (HUVEC cells; 1.0 mM, 24 hours): 0.748 ± 0.061
normalized Cell Index (nCI) (HUVEC cells; 1.0 mM, 36 hours): 0.694 ± 0.054
activity of AT III (antithrombin III (AT); 0.06 mM): 113.00 ± 10.13%
activity of AT III (antithrombin III (AT); 0.3 mM): 117.25 ± 5.50%
activity of AT III (antithrombin III (AT); 0.6 mM): 131.75 ± 6.65%
activity of AT III (antithrombin III (AT); 1.5 mM): 136.75 ± 11.32%
Fmax—maximum clotting ([1]; 0.06 mM): 84.78 ± 5.57 %T
Fvo—initial plasma clotting velocity ([1]; 0.06 mM): 108.56 ± 28.63 %T/min
Sc—area under the curve of a stable clot formation ([1]; 0.06 mM): 586.27 ± 95.97 %T x min
Sf—area under the clot formation curve ([1]; 0.06 mM): 102.35 ± 29.66 %T x min
S—overall potential of clot formation ([1]; 0.06 mM): 1628.36 ± 118.58 %T x min
TGt—thrombin generation time ([1]; 0.06 mM): 155.00 ± 20.58 s
Tf—plasma clotting time ([1]; 0.06 mM): 108.30 ± 35.15 s
Fmax—maximum clotting ([1]; 0.3 mM): 82.66 ± 7.51 %T
Fvo—initial plasma clotting velocity ([1]; 0.3 mM): 113.42 ± 23.98 %T/min
Sc—area under the curve of a stable clot formation ([1]; 0.3 mM): 766.41 ± 394.94 %T x min
Sf—area under the clot formation curve ([1]; 0.3 mM): 100.51 ± 28.00 %T x min
S—overall potential of clot formation ([1]; 0.3 mM): 1580.91 ± 150.03 %T x min
TGt—thrombin generation time ([1]; 0.3 mM): 139.60 ± 7.44 s
Tf—plasma clotting time ([1]; 0.3 mM): 108.58 ± 33.64 s
Fmax—maximum clotting ([1]; 0.6 mM): 82.44 ± 5.61 %T
Fvo—initial plasma clotting velocity ([1]; 0.6 mM): 127.78 ± 40.82 %T/min
Sc—area under the curve of a stable clot formation ([1]; 0.6 mM): 560.45 ± 102.47 %T x min
Sf—area under the clot formation curve ([1]; 0.6 mM): 107.67 ± 29.19 %T x min
S—overall potential of clot formation ([1]; 0.6 mM): 1580.02 ± 119.57 %T x min
TGt—thrombin generation time ([1]; 0.6 mM): 158.40 ± 13.03 s
Tf—plasma clotting time ([1]; 0.6 mM): 112.94 ± 35.34 s
Fmax—maximum clotting ([1]; 1.5 mM): 77.50 ± 8.20 %T
Fvo—initial plasma clotting velocity ([1]; 1.5 mM): 135.98 ± 31.06 %T/min
Sc—area under the curve of a stable clot formation ([1]; 1.5 mM): 537.91 ± 99.63 %T x min
Sf—area under the clot formation curve ([1]; 1.5 mM): 83.28 ± 17.34 %T x min
S—overall potential of clot formation ([1]; 1.5 mM): 1494.31 ± 163.29 %T x min
TGt—thrombin generation time ([1]; 1.5 mM): 165.40 ± 28.25 s
Tf—plasma clotting time ([1]; 1.5 mM): 93.42 ± 26.49 s

CCCCS(=O)(=O)NC(N)=NC(=N)N(C)C [Compound 1]
normalized Cell Index (nCI) (HUVEC cells; 0.3 mM, 3 hours): 0.832 ± 0.091
normalized Cell Index (nCI) (HUVEC cells; 0.3 mM, 6 hours): 0.981 ± 0.085
normalized Cell Index (nCI) (HUVEC cells; 0.3 mM, 12 hours): 1.177 ± 0.149
normalized Cell Index (nCI) (HUVEC cells; 0.3 mM, 24 hours): 1.207 ± 0.149
normalized Cell Index (nCI) (HUVEC cells; 0.3 mM, 36 hours): 0.875 ± 0.090
normalized Cell Index (nCI) (HUVEC cells; 1.0 mM, 3 hours): 0.440 ± 0.032
normalized Cell Index (nCI) (HUVEC cells; 1.0 mM, 6 hours): 0.676 ± 0.062
normalized Cell Index (nCI) (HUVEC cells; 1.0 mM, 12 hours): 0.791 ± 0.067
normalized Cell Index (nCI) (HUVEC cells; 1.0 mM, 24 hours): 0.940 ± 0.077
normalized Cell Index (nCI) (HUVEC cells; 1.0 mM, 36 hours): 0.858 ± 0.054
activity of AT III (antithrombin III (AT); 0.06 mM): 110.25 ± 8.34%
activity of AT III (antithrombin III (AT); 0.3 mM): 115.25 ± 6.18%
activity of AT III (antithrombin III (AT); 0.6 mM): 120.00 ± 2.71%
activity of AT III (antithrombin III (AT); 1.5 mM): 123.00 ± 5.2%
Fmax—maximum clotting ([1]; 0.06 mM): 76.30 ± 7.79 %T
Fvo—initial plasma clotting velocity ([1]; 0.06 mM): 97.22 ± 36.13 %T/min
Sc—area under the curve of a stable clot formation ([1]; 0.06 mM): 458.27 ± 113.77 %T x min
Sf—area under the clot formation curve ([1]; 0.06 mM): 140.16 ± 31.01 %T x min
S—overall potential of clot formation ([1]; 0.06 mM): 1449.09 ± 154.09 %T x min
TGt—thrombin generation time ([1]; 0.06 mM): 161.33 ± 35.27 s
Tf—plasma clotting time ([1]; 0.06 mM): 155.67 ± 45.29 s
Fmax—maximum clotting ([1]; 0.3 mM): 82.67 ± 4.79 %T
Fvo—initial plasma clotting velocity ([1]; 0.3 mM): 117.65 ± 36.38 %T/min
Sc—area under the curve of a stable clot formation ([1]; 0.3 mM): 544.47 ± 81.13 %T x min
Sf—area under the clot formation curve ([1]; 0.3 mM): 104.53 ± 38.44 %T x min
S—overall potential of clot formation ([1]; 0.3 mM): 1586.01 ± 103.04 %T x min
TGt—thrombin generation time ([1]; 0.3 mM): 162.33 ± 37.96 s
Tf—plasma clotting time ([1]; 0.3 mM): 109.63 ± 40.06 s
Fmax—maximum clotting ([1]; 0.6 mM): 75.62 ± 9.88 %T
Fvo—initial plasma clotting velocity ([1]; 0.6 mM): 96.52 ± 20.91 %T/min
Sc—area under the curve of a stable clot formation ([1]; 0.6 mM): 444.40 ± 91.71 %T x min
Sf—area under the clot formation curve ([1]; 0.6 mM): 119.01 ± 48.07 %T x min
S—overall potential of clot formation ([1]; 0.6 mM): 1442.42 ± 198.39 %T x min
TGt—thrombin generation time ([1]; 0.6 mM): 176.83 ± 57.02 s
Tf—plasma clotting time ([1]; 0.6 mM): 138.77 ± 59.29 s
Fmax—maximum clotting ([1]; 1.5 mM): 74.15 ± 7.83 %T
Fvo—initial plasma clotting velocity ([1]; 1.5 mM): 107.77 ± 35.80 %T/min
Sc—area under the curve of a stable clot formation ([1]; 1.5 mM): 452.95 ± 102.22 %T x min
Sf—area under the clot formation curve ([1]; 1.5 mM): 114.89 ± 64.82 %T x min
S—overall potential of clot formation ([1]; 1.5 mM): 1435.77 ± 143.80 %T x min
TGt—thrombin generation time ([1]; 1.5 mM): 172.00 ± 43.56 s
Tf—plasma clotting time ([1]; 1.5 mM): 135.33 ± 75.79 s
